Assay results published in patent US11912710B2 (UPPTHERA, INC., priority 2021, dated 2024).
Read-outs that look alike come from different tables or passages of the source.

What was measured:
Assay type in all cases: cell-based
MRC-5 cell line = assay: Cell viability assay (cytotoxicity) for MRC-5 cell line; details: for IC50: Homo sapiens, MRC5, 120 h
Protocol: 4. Cell Viability Assay for MRC-5 Cell Line
(1) Culture of MRC-5 Cell Line
Passage of cultured cells was maintained within P15.
(2) Treatment of Compounds of the Present Invention
Then, it was cultured in 37° C.
(3) Cytotoxicity Experiment
CO2 incubator for 4 hours.
Cell Viability Assay for MRC-5 cell line

PLK1 = target: T1, PLK1 (Homo sapiens, UniProt P53350); assay: Luciferase assay for PLK1 in HeLa LgBit (Plk1-HiBit KI) cell line; details: 300 nM compound, luminescence after 9 hours, read-out: Activity: ratio of the luminescense value of compound treatment group to DMSO treatment group
T1 construct: endogenous in cells; host or cells: HeLa LgBit (Plk1-HiBit KI): HeLa cells stably expressing LgBit, with HiBit knocked into the endogenous Plk1 locus by CRISPR/Cas9
T1 sequence (P53350 whole entry): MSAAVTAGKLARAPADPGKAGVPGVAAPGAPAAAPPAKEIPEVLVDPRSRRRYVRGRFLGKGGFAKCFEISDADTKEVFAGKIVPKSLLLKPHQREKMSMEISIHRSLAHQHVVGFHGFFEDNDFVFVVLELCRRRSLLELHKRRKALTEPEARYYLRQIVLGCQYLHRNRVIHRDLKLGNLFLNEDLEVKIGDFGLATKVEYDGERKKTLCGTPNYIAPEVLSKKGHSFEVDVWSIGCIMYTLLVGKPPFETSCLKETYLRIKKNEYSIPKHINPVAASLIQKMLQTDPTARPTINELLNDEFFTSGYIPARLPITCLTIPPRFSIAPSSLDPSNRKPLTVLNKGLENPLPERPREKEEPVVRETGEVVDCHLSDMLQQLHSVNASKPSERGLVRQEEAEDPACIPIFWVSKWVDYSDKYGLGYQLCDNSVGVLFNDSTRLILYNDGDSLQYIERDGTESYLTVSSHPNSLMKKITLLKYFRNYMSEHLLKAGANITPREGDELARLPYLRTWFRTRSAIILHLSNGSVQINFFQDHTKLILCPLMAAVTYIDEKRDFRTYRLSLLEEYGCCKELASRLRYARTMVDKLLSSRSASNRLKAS
Protocol: 2. Luciferase Assay for PLK1
(1) Preparation and Culture of HeLa LgBit (Plk1-HiBit KI) Cell Line
A HeLa cell line in which the LgBit vector was transfected and expressed stably was prepared. Then, after constructing gRNA and donor to express the HiBit amino acid sequence behind the C-terminal of the Plk1 gene, which was inherent in the cell, it was inserted into the cell together with a vector capable of expressing CRISPR/Cas9. Only the cells in which the insertion was completed and knock-in had progressed were selected, sub-cultured and used.
(2) Treatment of Compounds of the Present Invention and Method of Luciferase Assay
In the case of HeLa LgBit (Plk1-HiBit KI), the compounds were treated after being released after thymidine block, and the process was as follows. Thymidine (Sigma-Aldrich Cat. No. T9250-5G) was completely dissolved in DW and used in the experiment. For thymidine block, the products were treated with 2 mM of thymidine and then incubated for 24 hours. For release and chemical treatment, the medium was suctioned and washed with 1×PBS. TrypLE™ was added and incubated in 37° C. CO2 incubator for 5 min. Cells neutralized by adding complete media were counted through a counter. For each well of a 96-well culture plate (SPL), 3.3×10^4 cells and a total medium volume of 150 μL were seeded and incubated in a CO2 incubator.
Each cell line was incubated in a CO2 incubator for 18 hours, and Endurazine was added to each well to make up 4% of the total volume. After adding the compound of the present invention in a 96-well white plate (SPL) to a concentration of 300 nM, the wavelength of the plate reader (BMG Labtech, CLARIOstar Plus) was set to […], and then the luminescence was tracked in real time.
In Table 2, Activity represents the ratio of the luminescense value of each Exemplary Compound treatment group to DMSO treatment group (+++: <0.3, ++<0.6, +<0.7).

NCI-H526 cell line = assay: Cell viability assay for H526 cell line; details: Homo sapiens, NCI-H526, 120 h; H526 cells, 5 days, EZ-Cytox, 3000 nM to 0.46 nM
Protocol: 3. Cell Viability Assay for H526 Cell Line
(1) Culture of NCI-H526 Cell Line
(2) Treatment of Compounds of the Present Invention and Method of Cell Viability Assay
After treating the compound to each well to make the total volume of 200 μL, it was cultured in a CO2 incubator (Thermo Fisher Science, Cat. No. 4111) for 5 days.
The absorbance of the completely cultured sample was measured by setting the wavelength of a plate reader (BMG Labtech, CLARIOstar Plus) to […], and was measured after shaking for 3 minutes in a plate reader before measurement.
In Table 3, Activity represents IC50 value of each Exemplary Compound treatment group to H526 cell line (A: <30 nM, B: <50 nM, C: <100 nM, D: <200 nM, E: <400 nM).

[1] = read-out: Activity: IC50 value to MRC-5 cell line (Comparative Compounds)
[2] = MRC-5 normal cell line, 5 days, EZ-Cytox, 10000 nM to 1.52 nM, read-out: Activity: IC50 value to MRC-5 cell line (Exemplary Compounds)

SMILES | remaining activity at 0.3 µM (PLK1) [%] | IC50 (NCI-H526 cell line) [nM] | other results
CC[C@@H]1C(=O)N(C)c2cnc(Nc3ccc(C(=O)NCCOCCOCCNc4cccc5c4C(=O)N(C4CCC(=O)NC4=O)C5=O)cc3OC)nc2N1C1CCCC1 (stereo partly shown) [Comparative Compound 1, reference compound] |  |  | IC50 (MRC-5 cell line; MRC-5 normal cell line, 5 days, EZ-Cytox, 10000 nM to 1.52 nM, read-out: Activity: IC50 value to MRC-5 cell line (Comparative Compounds)): 107 nM; cytotoxicity in normal cell line (MRC-5 cell line; MRC-5 normal cell line, statement in words): high level of cytotoxicity
CC[C@@H]1C(=O)N(C)c2cnc(Nc3ccc(C(=O)NC4CCN(C)CC4)cc3OC)nc2N1C1CCCC1 [Comparative Compound 2, BI2536, reference compound] |  |  | IC50 (MRC-5 cell line; [1]): 3090 nM
CC[C@@H]1C(=O)N(C)c2cnc(Nc3ccc(C(=O)N[C@H]4CC[C@H](N5CCN(CC6CC6)CC5)CC4)cc3OC)nc2N1C(C)C [Comparative Compound 3, Volasertib, reference compound] |  |  | IC50 (MRC-5 cell line; [1]): 2940 nM
COc1cc(C(=O)NC2CCN(C)CC2)c(F)cc1Nc1ncc2c(n1)N(C1CCCC1)CC(F)(F)C(=O)N2C [Comparative Compound 4, TAK960, reference compound] |  |  | IC50 (MRC-5 cell line; [1]): 9150 nM
COc1cc(C(=O)NC2CCN(CCOCCOCCOCCOCCNc3ccc(C4CCC(=O)NC4=O)cc3)CC2)c(F)cc1Nc1ncc2c(n1)N(C1CCCC1)CC(F)(F)C(=O)N2C (stereo not shown) [Compound 1, 4-((9-cyclopentyl-7,7-difluoro-5-methyl-6-oxo-6,7,8,9-tetrahydro-5H-pyrimido[4,5-b][1,4]diazepin-2-yl)amino)-N-(1-(14-((4-(2,6-dioxopiperidin-3-yl)phenyl)amino)-3,6,9,12-tetraoxatetradecyl)piperidin-4-yl)-2-fluoro-5-methoxybenzamide] | < 60 | < 50 | IC50 (MRC-5 cell line; [2]): 25600 nM
COc1cc(C(=O)NC2CCN(C(=O)CCCOc3cccc(C4CCC(=O)NC4=O)c3)CC2)c(F)cc1Nc1ncc2c(n1)N(C1CCCC1)CC(F)(F)C(=O)N2C (stereo not shown) [Compound 2, 4-((9-cyclopentyl-7,7-difluoro-5-methyl-6-oxo-6,7,8,9-tetrahydro-5H-pyrimido[4,5-b][1,4]diazepin-2-yl)amino)-N-(1-(4-(3-(2,6-dioxopiperidin-3-yl)phenoxy)butanoyl)piperidin-4-yl)-2-fluoro-5-methoxybenzamide] | < 60 | < 50 | IC50 (MRC-5 cell line; [2]): > 10000 nM

Now from value to molecule, other results behind:

remaining activity at 0.3 µM (PLK1) [%] | SMILES | IC50 (NCI-H526 cell line) [nM] | other results
< 30 | COc1cc(OCC2CC3(CCN(CC4CCN(c5ccc(C6CCC(=O)NC6=O)cc5F)CC4)CC3)C2)ccc1Nc1ncc2c(n1)N(C1CCCC1)CC(F)(F)C(=O)N2C (stereo not shown) [Compound 17, 3-(4-(4-((2-((4-((9-cyclopentyl-7,7-difluoro-5-methyl-6-oxo-6,7,8,9-tetrahydro-5H-pyrimido[4,5-b][1,4]diazepin-2-yl)amino)-3-methoxyphenoxy)methyl)-7-azaspiro[3.5]nonan-7-yl)methyl)piperidin-1-yl)-3-fluorophenyl)piperidine-2,6-dione] | < 200 | 
< 60 | COc1cc(C(=O)NN2CCC(N3CC4(CCN(c5ccc(C6CCC(=O)NC6=O)cc5F)CC4)C3)CC2)ccc1Nc1ncc2c(n1)N(C1CCCC1)CC(F)(F)C(=O)N2C (stereo not shown) [Compound 18, 4-((9-cyclopentyl-7,7-difluoro-5-methyl-6-oxo-6,7,8,9-tetrahydro-5H-pyrimido[4,5-b][1,4]diazepin-2-yl)amino)-N-(4-(7-(4-(2,6-dioxopiperidin-3-yl)-2-fluorophenyl)-2,7-diazaspiro[3.5]nonan-2-yl)piperidin-1-yl)-3-methoxybenzamide] | < 30 | 
< 30 | COc1cc(C(=O)NC2CC23CCN(CC2CCN(c4ccc(C5CCC(=O)NC5=O)cc4F)CC2)CC3)ccc1Nc1ncc2c(n1)N(C1CCCC1)CC(F)(F)C(=O)N2C (stereo not shown) [Compound 23, 4-((9-cyclopentyl-7,7-difluoro-5-methyl-6-oxo-6,7,8,9-tetrahydro-5H-pyrimido[4,5-b][1,4]diazepin-2-yl)amino)-N-(6-((1-(4-(2,6-dioxopiperidin-3-yl)-2-fluorophenyl)piperidin-4-yl)methyl)-6-azaspiro[2.5]octan-1-yl)-3-methoxybenzamide] | < 30 | 
< 60 | COc1cc(C(=O)NC2CC3(CCN(CC4CCN(c5cccc(N6CCC(=O)NC6=O)c5)CC4)CC3)C2)ccc1Nc1ncc2c(n1)N(C1CCCC1)CC(F)(F)C(=O)N2C [Compound 34, 4-((9-cyclopentyl-7,7-difluoro-5-methyl-6-oxo-6,7,8,9-tetrahydro-5H-pyrimido[4,5-b][1,4]diazepin-2-yl)amino)-N-(7-((1-(3-(2,4-dioxotetrahydropyrimidin-1(2H)-yl)phenyl)piperidin-4-yl)methyl)-7-azaspiro[3.5]nonan-2-yl)-3-methoxybenzamide] | < 30 | 
< 60 | COc1cc(C(=O)NC2CC3(CCN(CC4CCN(c5cccc(C6CCC(=O)NC6=O)c5)CC4)CC3)C2)ccc1Nc1ncc2c(n1)N(C1CCCC1)CC(F)(F)C(=O)N2C (stereo not shown) [Compound 41, 4-((9-cyclopentyl-7,7-difluoro-5-methyl-6-oxo-6,7,8,9-tetrahydro-5H-pyrimido[4,5-b][1,4]diazepin-2-yl)amino)-N-(7-((1-(3-(2,6-dioxopiperidin-3-yl)phenyl)piperidin-4-yl)methyl)-7-azaspiro[3.5]nonan-2-yl)-3-methoxybenzamide] | < 30 | 
< 30 | COc1cc(C(=O)NC2CCN(C3CN(c4ccc(C5CCC(=O)NC5=O)cc4F)C3)CC2)ccc1Nc1ncc2c(n1)N(C1CCCC1)CC(F)(F)C(=O)N2C (stereo not shown) [Compound 42, 4-((9-cyclopentyl-7,7-difluoro-5-methyl-6-oxo-6,7,8,9-tetrahydro-5H-pyrimido[4,5-b][1,4]diazepin-2-yl)amino)-N-(1-(1-(4-(2,6-dioxopiperidin-3-yl)-2-fluorophenyl)azetidin-3-yl)piperidin-4-yl)-3-methoxybenzamide] | < 30 | 
< 60 | COc1cc(C(=O)NN2CCC(C3CN(c4ccc(C5CCC(=O)NC5=O)cc4F)C3)CC2)ccc1Nc1ncc2c(n1)N(C1CCCC1)CC(F)(F)C(=O)N2C (stereo not shown) [Compound 43, 4-((9-cyclopentyl-7,7-difluoro-5-methyl-6-oxo-6,7,8,9-tetrahydro-5H-pyrimido[4,5-b][1,4]diazepin-2-yl)amino)-N-(4-(1-(4-(2,6-dioxopiperidin-3-yl)-2-fluorophenyl)azetidin-3-yl)piperidin-1-yl)-3-methoxybenzamide] | < 50 | 
< 60 | COc1cc(C(=O)NN2CC3(CCN(CC4CCN(c5ccc(C6CCC(=O)NC6=O)cc5F)CC4)CC3)C2)ccc1Nc1ncc2c(n1)N(C1CCCC1)CC(F)(F)C(=O)N2C (stereo not shown) [Compound 44] | < 30 | 
< 30 | COc1cc(C(=O)NC2CC3(CCN(C[C@@H]4CCN(c5ccc(C6CCC(=O)NC6=O)cc5F)C[C@@H]4F)CC3)C2)ccc1Nc1ncc2c(n1)N(C1CCCC1)CC(F)(F)C(=O)N2C (stereo partly drawn) [Compound 46, −((9-cyclopentyl-7,7-difluoro-5-methyl-6-oxo-6,7,8,9-tetrahydro-5H-pyrimido[4,5-b][1,4]diazepin-2-yl)amino)-N-(7-(((3R,4S)-1-(4-(2,6-dioxopiperidin-3-yl)-2-fluorophenyl)-3-fluoropiperidin-4-yl)methyl)-7-azaspiro[3.5]nonan-2-yl)-3-methoxybenzamide] |  | 
